What was measured:
primary human adipocytes = assay: Extracellular acidification and oxygen consumption rates (XF-Analyzer) in human adipocytes; type: cell-based; conditions: adipocytes differentiated and cultured in sedoheptulose containing media vs controls
Description: Stromal vascular fraction cells (SVFs) from subcutaneous white adipose tissue of a patient undergoing abdominal surgery were isolated as described before (Lindroos et al, Cell Metab. (2013), July 2; 18(1):62-74.). Briefly, adipose tissue was digested with Collagenase II (Worthington) and filtered. SVFs were separated from mature adipocytes by centrifugation, followed by the lysis of erythrocytes in the SVF-fraction (Buffer EL, Qiagen). The purified SVFs were cultured in DMEM/F12, 10% FBS (Gibco, Life Technologies). As soon as the cells reached confluence, they were washed with DMEM/F12 w/o glucose (Biowest) and the medium was replaced by DMEM/F12 with a total carbohydrate load of 3 g/L, containing 1.5 g/L glucose and fructose or 1 g/L each of glucose, fructose, and sedoheptulose, respectively. […]
(§1) The XF-Analyzer (Seahorse Bio.) was used to measure changes in cellular metabolism induced by different carbohydrates. Extracellular acidification rates (ECAR, mpH/min) and oxygen consumption rates (OCR, pmoles/min) were recorded in primary human adipocytes and primary murine hepatocytes according to the manufacture instructions. […] Changes induced by the different carbohydrate sources were expressed as relative change in % to illustrate the effect of each carbon source.

[1] = test system: primary murine hepatocytes; assay: Primary murine hepatocyte culture, IL-6 mRNA by RT-PCR; type: cell-based, mouse; conditions: pre-cultured two days in GFS vs GF media, FIG. 3H
Description: (§2) Hepatocytes were isolated from male wild-type and CARKL overexpressing mice after the mice were sacrificed by hepatic in situ collagenase perfusion. After perfusion, the liver was quickly removed, minced, and filtered through a cell strainer (Fisher Scientific, Inc) into a 50 ml sterile tube. Hepatocytes in the resulting filtrate were purified from the nonparenchymal cells by centrifugation steps. The isolated hepatocytes were seeded into plates at a concentration of 0.25×10^6/ml in respective DMEM-media containing 10% FBS and indicated carbohydrate mixes at 3 g/L (glucose and fructose (GF), or glucose, fructose and sedoheptulose (GFS)) at least two days before experiments were performed.
Briefly, total RNA was extracted and reverse-transcribed using commercial kits (QIAGEN, Applied Biosystems). Quantitative real-time PCRs were performed on an AbiPRISM 7900HT real-time cycler using iTaq SYBR Green Supermix with ROX (BioRad) to measure CARKL, adiponectin, UCP-1, TNFa, IL-6, MCP-1, and beta-actin expression as previously described (Haschemi et al., Cell Metab. 15 (2012), 813-826). Expression of target gene was normalized to beta-actin expression. Relative expression of target gene was calculated by the delta-delta CT method.

[2] = Glucose and sedoheptulose measurement in human serum before and after carrot meal (GC-MS); type: in vivo; conditions: humans, two hours after a meal of mainly steamed carrots (~700 g per male adult) vs overnight fasted, n=4, FIG. 1B
Source text: Fresh carrots with an Austrian “organic-certificate” were sliced into small pieces and snap-frozen in liquid nitrogen. The same procedure was applied to leaves freshly harvested from indoor-grown Sedum Spectabile plants. Three samples of each tissue were pooled and homogenized to powder by glass-beads. The carbohydrate rich fractions of the samples were isolated by 20% H2O and 80% MeOH extraction solution spiked with 13 C standards and processed for standard gas-chromatography coupled to mass spectrometry (GC-MS). Glucose and sedoheptulose were identified by their individual masses and their relative amount was derived from the peak area of each individual analyte normalized to 13 C content. Glucose and sedoheptulose were also measured in equal volumes of serum from overnight fasted or carrot fed individuals. The carrots were steamed and some olive-oil, salt and pepper were used for flavour. Two hours before and two hours after the carrot containing meal human serum was prepared in VACUETTE® Z Serum Sep tubes from blood. Serum samples were processed as previously described and also analyzed by GC-MS as detailed above and in Ruiz-Matute AI et al., Chromatogr B Analyt Technol Biomed Life Sci. (2011) May 15 879(17-18).

WT hepatocytes = assay: Glucose-induced ECAR in hepatocytes; type: cell-based, mouse; conditions: WT hepatocytes in GFS vs GF media, 1 hr carbohydrate starvation, then glucose 1 g/L, FIG. 4E
Description: as §2
as §1, with “instructions. Briefly, cells were seeded in seahorse cell plates at a density of 10^4 cells per well for adipocytes and 0.5×10^5 cells per well for hepatocytes.” for “instructions.”

- increase in sedoheptulose serum levels [2]: approximately two-fold
Structure (SMILES): O=C(CO)[C@@H](O)[C@H](O)[C@H](O)[C@H](O)CO [sedoheptulose, Sedoheptulose]
- cellular oxygen consumption rates (OCR) (primary human adipocytes; FIG. 3D): increased
- extracellular acidification rates (ECAR) (primary human adipocytes; FIG. 3E): comparable
- IL-6 expression [1]: less
- glucose-induced ECAR (WT hepatocytes): reduced

— patent US10660910B2, “Use of sedoheptulose for prevention or treatment of inflammation” (C7 SUGAR GMBH, priority 2013, dated 2020)
